Measured values published in ChEMBL document CHEMBL3804754, “Optimization of Novel Aza-benzimidazolone mGluR2 PAMs with Respect to LLE and PK Properties and Mitigation of CYP TDI” (ACS Med Chem Lett, 2016).
Values after ≈ are worked out from the molar mass of the structure shown. Blank lines part the entries; values can stand above or below the molecule they belong to. Active and inactive are the calls of the source. The calls are words filed in the database; no cut-off is given here.

Legend:
[1] = target: T1, Metabotropic glutamate receptor 2 (Homo sapiens, UniProt Q14416); test: Positive allosteric modulation of recombinant human mGlu2 receptor expressed in CHO cells assessed as potentiation of glutamate-induced effect preincubated for 5 mins followed by glutamate stimulation for 3 mins by Fluo-4AM staining-based FLIPR assay; type: cell-based
[2] = Solubility of compound at pH 7; type: physicochemical; details: buffer
[3] = (§1) AUC in Wistar Hannover rat at 10 mg/kg, po administered as single dose; type: ADME, organism-based; details: Wistar Hannover, in vivo
[4] = Clearance in Wistar Hannover rat at 2 mg/kg, iv administered as single dose; type: ADME, organism-based; details: in vivo
[5] = Half life in Wistar Hannover rat at 2 mg/kg, iv administered as single dose; type: ADME, organism-based; details: in vivo
[6] = (§2) Oral bioavailability in Wistar Hannover rat at 10 mg/kg administered as single dose; type: ADME, organism-based; details: Wistar Hannover, in vivo
Rattus norvegicus [7] = test: Fraction unbound adjusted clearance in Wistar Hannover rat at 2 mg/kg, iv administered as single dose; type: ADME, organism-based; details: in vivo
[8] = target: Metabotropic glutamate receptor 6 (Homo sapiens, UniProt O15303); test: Positive allosteric modulation of mGlu6 receptor (unknown origin)
[9] = target: Metabotropic glutamate receptor 5 (Homo sapiens, UniProt P41594); test: Positive allosteric modulation of mGlu5 receptor (unknown origin)
[10] = target: Metabotropic glutamate receptor 4 (Homo sapiens, UniProt Q14833); test: Positive allosteric modulation of mGlu4 receptor (unknown origin)
[11] = target: Metabotropic glutamate receptor 3 (Homo sapiens, UniProt Q14832); test: Positive allosteric modulation of mGlu3 receptor (unknown origin)
[12] = target: T1, Metabotropic glutamate receptor 2; test: Agonist activity at recombinant human mGlu2 receptor expressed in CHO cells assessed as potentiation of glutamate-induced effect preincubated for 5 mins followed by glutamate stimulation for 3 mins by Fluo-4AM staining-based FLIPR assay; type: cell-based
[13] = Half life in Beagle dog at 0.5 mg/kg, iv administered as single dose; type: ADME, organism-based, Canis lupus familiaris; details: in vivo
P-gp [14] = test: Substrate activity at rat P-gp assessed as apparent permeability; type: ADME; details: not told
[15] = Substrate activity at human P-gp assessed as apparent permeability; type: ADME
[16] = Clearance in Beagle dog at 0.5 mg/kg, iv administered as single dose; type: ADME, organism-based, Canis lupus familiaris; details: in vivo
[17] = target: T1, Metabotropic glutamate receptor 2; test: Positive allosteric modulation of recombinant human mGlu2 receptor expressed in CHO cells assessed as decrease in glutamate EC50 at 1 uM preincubated for 5 mins followed by glutamate stimulation for 3 mins by Fluo-4AM staining-based FLIPR assay relative to control; type: cell-based
P-gp [18] = test: Substrate activity at rat P-gp assessed as efflux ratio of apparent permeability from basolateral to apical side to apical to basolateral side; type: ADME; details: not told
Rattus norvegicus [19] = test: as §2; type: ADME, organism-based; details: in vivo
Rattus norvegicus [20] = test: as §1; type: ADME, organism-based; details: in vivo
[21] = target: D(2) dopamine receptor (Homo sapiens) (UniProt P14416); test: Activity at dopamine D2 receptor (unknown origin)
[22] = Fraction unbound in Beagle dog plasma at 0.5 mg/kg, iv administered as single dose; type: ADME, organism-based, Canis lupus familiaris
Salmonella typhimurium [23] = test: Mutagenicity in Salmonella typhimurium by Ames test in absence of S9 liver fraction; type: toxicity, organism-based; details: salmonella enterica subsp. enterica serovar typhimurium
CYP3A4 [24] = target: T2, CYP3A4 (Homo sapiens, UniProt P08684); test: Inhibition of CYP3A4 in human liver microsomes at 10 uM; type: ADME
[25] = Fraction unbound in Wistar Hannover rat plasma at 2 mg/kg, iv administered as single dose; type: ADME, organism-based
Canis familiaris = test: Fraction unbound adjusted clearance in Beagle dog at 0.5 mg/kg, iv administered as single dose; type: ADME, organism-based, Canis lupus familiaris; details: in vivo
[26] = target: 5-hydroxytryptamine receptor 2A (Homo sapiens) (UniProt P28223); test: Activity at 5HT2A receptor (unknown origin)
Homo sapiens = species: Homo sapiens; test: Activity at PDE10 (unknown origin)
Cerebrospinal fluid = test: Drug uptake in Sprague-Dawley rat cerebrospinal fluid at 30 mg/kg, po; type: ADME, organism-based; details: in vivo, read-out: Drug uptake
Rattus norvegicus [27] = test: Antipsychotic activity in Sprague-Dawley rat assessed as inhibition of MK-801-induced hyperlocomotive activity at 30 mg/kg, treated for 30 mins followed by MK-801 challenge measured over 90 mins relative to vehicle control; type: functional, organism-based
Salmonella typhimurium [28] = test: Mutagenicity in Salmonella typhimurium by Ames test in presence of S9 liver fraction; type: toxicity, organism-based; details: salmonella enterica subsp. enterica serovar typhimurium
Plasma = test: Plasma concentration in Sprague-Dawley rat at 10 mg/kg, po; type: ADME, organism-based; details: in vivo
[29] = Intrinsic clearance in dog liver microsomes at 10 uM incubated for 20 to 60 mins by LC-HRMS analysis in presence of NADPH/GSH; type: ADME, Canis lupus familiaris; details: read-out: CLH
[30] = target: Metabotropic glutamate receptor 2 (Rattus norvegicus, UniProt P31421); test: Positive allosteric modulation of rat mGlu2 receptor assessed as potentiation of glutamate-induced effect by Fluo-4AM staining-based FLIPR assay
CYP3A4 [31] = target: T2, CYP3A4; test: (§3) Time dependent inhibition of CYP3A4 in human liver microsomes; type: ADME; details: human, liver microsomes
Cytochrome P450 3A4 = Cytochrome P450 3A4 (Homo sapiens, UniProt P08684); test: as §3; type: ADME
Rattus norvegicus [32] = test: Antipsychotic activity in Sprague-Dawley rat assessed as inhibition of MK-801-induced hyperlocomotive activity at 10 mg/kg, treated for 30 mins followed by MK-801 challenge measured over 90 mins relative to vehicle control; type: functional, organism-based
[33] = Oral bioavailability in Beagle dog at 1 mg/kg administered as single dose; type: ADME, organism-based, Canis lupus familiaris; details: in vivo
[34] = AUC in Beagle dog at 1 mg/kg, po administered as single dose; type: ADME, organism-based, Canis lupus familiaris; details: in vivo

Metabotropic glutamate receptor 6, sequence (O15303 whole entry): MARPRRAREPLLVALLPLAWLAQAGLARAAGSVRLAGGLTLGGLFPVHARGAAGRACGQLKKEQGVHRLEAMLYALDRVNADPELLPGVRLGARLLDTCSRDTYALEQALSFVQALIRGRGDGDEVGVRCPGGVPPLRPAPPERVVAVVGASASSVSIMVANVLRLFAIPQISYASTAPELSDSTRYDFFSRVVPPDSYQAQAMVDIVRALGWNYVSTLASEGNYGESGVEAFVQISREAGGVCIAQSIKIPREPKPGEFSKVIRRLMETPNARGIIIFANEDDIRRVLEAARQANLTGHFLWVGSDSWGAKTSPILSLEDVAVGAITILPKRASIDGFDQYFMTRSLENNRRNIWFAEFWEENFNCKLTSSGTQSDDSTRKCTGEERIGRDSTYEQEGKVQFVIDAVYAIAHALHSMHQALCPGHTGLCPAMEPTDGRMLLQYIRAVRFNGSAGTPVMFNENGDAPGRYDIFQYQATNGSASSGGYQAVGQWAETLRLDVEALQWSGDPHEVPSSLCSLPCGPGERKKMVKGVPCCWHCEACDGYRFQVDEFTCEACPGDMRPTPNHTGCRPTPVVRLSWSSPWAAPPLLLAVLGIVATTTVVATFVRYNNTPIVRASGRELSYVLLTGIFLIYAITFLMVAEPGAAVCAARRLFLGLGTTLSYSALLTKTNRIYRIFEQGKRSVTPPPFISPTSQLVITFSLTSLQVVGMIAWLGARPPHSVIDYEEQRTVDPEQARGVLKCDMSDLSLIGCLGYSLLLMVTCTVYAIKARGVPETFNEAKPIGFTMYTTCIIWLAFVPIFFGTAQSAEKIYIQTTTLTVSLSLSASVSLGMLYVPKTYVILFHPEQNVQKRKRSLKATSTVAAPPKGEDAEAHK
T2 sequence (P08684 whole entry): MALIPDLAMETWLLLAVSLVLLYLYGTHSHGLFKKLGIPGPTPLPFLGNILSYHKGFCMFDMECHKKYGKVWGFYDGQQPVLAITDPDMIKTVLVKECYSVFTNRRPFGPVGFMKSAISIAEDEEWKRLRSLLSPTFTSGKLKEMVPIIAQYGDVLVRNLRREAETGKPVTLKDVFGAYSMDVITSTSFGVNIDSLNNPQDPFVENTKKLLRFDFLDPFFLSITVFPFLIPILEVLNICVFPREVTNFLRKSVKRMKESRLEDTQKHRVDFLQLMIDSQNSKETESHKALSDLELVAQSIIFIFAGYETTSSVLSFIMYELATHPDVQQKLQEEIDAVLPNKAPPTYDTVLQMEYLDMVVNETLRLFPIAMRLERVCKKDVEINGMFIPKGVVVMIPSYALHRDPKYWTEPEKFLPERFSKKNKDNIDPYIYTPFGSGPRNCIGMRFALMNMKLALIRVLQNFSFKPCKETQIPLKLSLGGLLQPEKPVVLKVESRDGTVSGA
Metabotropic glutamate receptor 4, sequence (Q14833 whole entry): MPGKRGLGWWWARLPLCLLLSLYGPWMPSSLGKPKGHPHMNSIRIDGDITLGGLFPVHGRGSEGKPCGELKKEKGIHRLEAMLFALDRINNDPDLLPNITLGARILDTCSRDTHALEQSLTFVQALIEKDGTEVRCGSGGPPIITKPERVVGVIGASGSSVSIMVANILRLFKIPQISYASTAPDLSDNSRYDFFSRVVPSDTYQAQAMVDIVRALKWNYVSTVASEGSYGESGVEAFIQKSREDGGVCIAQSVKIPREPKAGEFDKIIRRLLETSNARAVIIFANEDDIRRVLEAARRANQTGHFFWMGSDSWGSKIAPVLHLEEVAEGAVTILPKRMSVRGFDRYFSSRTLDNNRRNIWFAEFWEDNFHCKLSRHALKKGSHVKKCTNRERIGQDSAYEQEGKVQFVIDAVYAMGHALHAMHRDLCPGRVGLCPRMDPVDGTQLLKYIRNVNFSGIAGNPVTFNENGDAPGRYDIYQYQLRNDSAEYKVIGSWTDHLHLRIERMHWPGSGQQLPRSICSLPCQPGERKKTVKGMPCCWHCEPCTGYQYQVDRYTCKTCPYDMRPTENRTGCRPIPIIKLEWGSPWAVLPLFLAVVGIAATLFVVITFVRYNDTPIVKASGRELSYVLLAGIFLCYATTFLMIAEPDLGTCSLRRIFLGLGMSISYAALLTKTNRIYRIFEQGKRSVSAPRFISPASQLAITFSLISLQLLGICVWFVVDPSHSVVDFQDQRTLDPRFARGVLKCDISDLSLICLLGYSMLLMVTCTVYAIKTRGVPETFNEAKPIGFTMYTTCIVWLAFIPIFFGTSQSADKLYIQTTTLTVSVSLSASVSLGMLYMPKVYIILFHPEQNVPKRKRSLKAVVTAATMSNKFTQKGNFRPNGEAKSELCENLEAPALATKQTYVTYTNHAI
Metabotropic glutamate receptor 3, sequence (Q14832 whole entry): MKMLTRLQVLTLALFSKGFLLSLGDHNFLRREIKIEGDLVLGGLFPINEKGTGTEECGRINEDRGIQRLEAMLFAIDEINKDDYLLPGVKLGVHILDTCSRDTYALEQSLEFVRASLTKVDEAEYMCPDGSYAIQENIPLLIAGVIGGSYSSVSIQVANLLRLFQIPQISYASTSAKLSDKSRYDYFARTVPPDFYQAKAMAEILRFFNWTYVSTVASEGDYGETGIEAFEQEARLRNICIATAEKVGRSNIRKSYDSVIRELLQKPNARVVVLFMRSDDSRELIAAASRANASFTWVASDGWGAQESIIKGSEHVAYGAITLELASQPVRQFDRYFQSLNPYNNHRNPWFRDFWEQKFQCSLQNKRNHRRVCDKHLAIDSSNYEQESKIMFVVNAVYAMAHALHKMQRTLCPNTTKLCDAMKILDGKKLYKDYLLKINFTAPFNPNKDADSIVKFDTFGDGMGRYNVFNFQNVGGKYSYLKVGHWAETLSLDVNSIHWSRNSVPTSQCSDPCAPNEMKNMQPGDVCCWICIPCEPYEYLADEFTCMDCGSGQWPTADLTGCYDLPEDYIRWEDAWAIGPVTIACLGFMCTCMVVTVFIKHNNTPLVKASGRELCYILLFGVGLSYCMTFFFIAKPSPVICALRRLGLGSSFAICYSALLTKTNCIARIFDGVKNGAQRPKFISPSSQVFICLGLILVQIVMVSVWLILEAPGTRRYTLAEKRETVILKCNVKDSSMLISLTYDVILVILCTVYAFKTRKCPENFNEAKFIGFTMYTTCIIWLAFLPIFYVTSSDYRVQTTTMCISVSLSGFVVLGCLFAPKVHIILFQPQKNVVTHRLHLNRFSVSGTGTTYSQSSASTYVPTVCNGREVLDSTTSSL
Metabotropic glutamate receptor 5, sequence (P41594 whole entry): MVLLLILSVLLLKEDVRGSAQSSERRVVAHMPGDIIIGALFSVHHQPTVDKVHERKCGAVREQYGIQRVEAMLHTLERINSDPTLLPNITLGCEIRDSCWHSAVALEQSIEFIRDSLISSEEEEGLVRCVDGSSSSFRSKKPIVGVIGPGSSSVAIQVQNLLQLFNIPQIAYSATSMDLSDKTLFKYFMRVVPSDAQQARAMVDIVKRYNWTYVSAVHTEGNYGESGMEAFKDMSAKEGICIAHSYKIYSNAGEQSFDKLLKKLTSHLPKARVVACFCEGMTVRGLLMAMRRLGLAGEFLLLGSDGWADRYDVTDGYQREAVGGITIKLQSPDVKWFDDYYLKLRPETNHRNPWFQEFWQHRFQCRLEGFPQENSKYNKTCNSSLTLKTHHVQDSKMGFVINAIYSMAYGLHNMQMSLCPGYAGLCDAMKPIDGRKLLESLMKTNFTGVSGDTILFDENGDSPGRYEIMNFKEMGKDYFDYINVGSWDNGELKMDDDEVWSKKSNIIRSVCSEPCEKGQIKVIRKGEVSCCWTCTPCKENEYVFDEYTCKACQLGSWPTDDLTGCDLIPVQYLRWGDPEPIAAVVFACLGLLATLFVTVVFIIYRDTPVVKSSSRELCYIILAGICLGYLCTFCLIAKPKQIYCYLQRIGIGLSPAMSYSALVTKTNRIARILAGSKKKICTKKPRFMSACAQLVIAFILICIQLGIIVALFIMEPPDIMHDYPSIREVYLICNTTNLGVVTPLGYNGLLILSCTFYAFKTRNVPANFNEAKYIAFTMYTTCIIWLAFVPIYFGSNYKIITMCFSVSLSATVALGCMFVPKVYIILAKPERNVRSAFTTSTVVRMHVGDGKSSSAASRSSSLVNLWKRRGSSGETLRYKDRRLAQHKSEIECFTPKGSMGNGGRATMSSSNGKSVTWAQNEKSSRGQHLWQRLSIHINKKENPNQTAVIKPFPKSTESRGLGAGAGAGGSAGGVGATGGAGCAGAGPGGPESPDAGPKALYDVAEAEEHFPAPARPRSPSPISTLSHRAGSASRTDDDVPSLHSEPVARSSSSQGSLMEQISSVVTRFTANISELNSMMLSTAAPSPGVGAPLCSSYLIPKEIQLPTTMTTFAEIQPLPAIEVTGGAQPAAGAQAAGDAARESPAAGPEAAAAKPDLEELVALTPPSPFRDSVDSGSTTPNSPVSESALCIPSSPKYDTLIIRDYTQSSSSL
Cytochrome P450 3A4, sequence (P08684 whole entry): as the sequence (P08684 whole entry) above
D(2) dopamine receptor (Homo sapiens), sequence (P14416 whole entry): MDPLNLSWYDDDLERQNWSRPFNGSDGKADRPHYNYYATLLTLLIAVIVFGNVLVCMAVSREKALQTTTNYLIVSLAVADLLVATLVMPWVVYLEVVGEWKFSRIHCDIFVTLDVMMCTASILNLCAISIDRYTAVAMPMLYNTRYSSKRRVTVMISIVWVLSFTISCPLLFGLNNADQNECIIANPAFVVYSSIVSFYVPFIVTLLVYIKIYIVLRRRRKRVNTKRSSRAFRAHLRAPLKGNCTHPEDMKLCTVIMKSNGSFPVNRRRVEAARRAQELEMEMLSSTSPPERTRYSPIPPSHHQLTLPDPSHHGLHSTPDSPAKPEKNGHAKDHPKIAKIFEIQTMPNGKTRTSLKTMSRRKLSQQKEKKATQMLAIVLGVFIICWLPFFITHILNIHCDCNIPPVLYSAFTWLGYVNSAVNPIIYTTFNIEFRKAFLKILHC

Compound: Cn1c(=O)n(CC(C)(C)C)c2ccc(N3CC4CCC3CN4c3ncccn3)nc21 (racemic)
- %max [1]: 65%
- EC50 [1]: 0.037 µM
- solubility [2]: 18 µM (≈ 7.34 µg/mL)
- AUC [3]: 3.9 µM·h

Compound: Cn1c(=O)n(CC(C)(C)C)c2ccc(N3CC4CCC3CN4C(=O)c3ccccc3)nc21 (racemic)
- clearance [4]: 69 mL/min/kg
- %max [1]: 71%
- EC50 [1]: 0.036 µM
- half-life [5]: 1.2 h
- bioavailability [6]: 10%
- solubility [2]: 66 µM (≈ 28.6 µg/mL)
- AUC [3]: 2 µM·h
- CL free (Rattus norvegicus [7]): 35 mL/min/kg

Compound: Cn1c(=O)n(CC(C)(C)C)c2ccc(N3CC4CCC3CN4)nc21 (racemic)
- EC50 [8]: > 30 µM
- EC50 [9]: > 30 µM
- %max [1]: 71%
- EC50 [1]: 1.29 µM
- EC50 [10]: > 30 µM
- EC50 [11]: > 30 µM

Compound: Cc1cc(CN2CC3CCC2CN3c2ccc3c(n2)n(C)c(=O)n3CC(C)(C)C)no1 (racemic)
- %max [1]: 74%
- EC50 [1]: 0.149 µM
- solubility [2]: 186 µM (≈ 79 µg/mL)
- AUC [3]: 2 µM·h

Compound: Cn1c(=O)n(CC(C)(C)C)c2ccc(N3CCCC4CCCCC43)nc21 (mixture of isomers)
- EC50 [8]: > 30 µM
- EC50 [9]: > 30 µM
- %max [1]: 77%
- EC50 [1]: 2.2 µM
- EC50 [10]: > 30 µM
- EC50 [11]: > 30 µM

Compound: Cn1c(=O)n(CC(C)(C)C)c2ccc(N3CC4CCC3CN4C(=O)OC(C)(C)C)nc21 (racemic)
- EC50 [8]: > 30 µM
- EC50 [9]: > 30 µM
- %max [1]: 70%
- EC50 [1]: 0.125 µM
- EC50 [10]: > 30 µM
- EC50 [11]: > 30 µM

More lines, main results first:

- EC50 [8]: > 30 µM
- EC50 [9]: > 30 µM
- %max [1]: 87%
- EC50 [1]: 0.43 µM
- EC50 [10]: > 30 µM
- EC50 [11]: > 30 µM
Compound: Cn1c(=O)n(CC(C)(C)C)c2ccc(N3CCCCC3)nc21

- EC50 [8]: > 30 µM
- EC50 [9]: > 30 µM
- %max [1]: 60%
- EC50 [1]: 0.332 µM
- EC50 [10]: > 30 µM
- EC50 [11]: > 30 µM
Compound: Cn1c(=O)n(CC(C)(C)C)c2ccc(N3CCCc4ccccc43)nc21

- EC50 [8]: > 30 µM
- EC50 [9]: > 30 µM
- %max [12]: 49%
- EC50 [12]: 0.637 µM
- %max [1]: 72%
- EC50 [1]: 0.029 µM
- half-life [13]: 2.5 h
- Papp (P-gp [14]): 30 ×10⁻⁶ cm/s
- Activity [15]: Not Active
- clearance [16]: 14 mL/min/kg
- solubility [2]: 116 µM (≈ 51.2 µg/mL)
- fold change (FC) [17]: 26
- efflux ratio (P-gp [18]): 1.1
- AUC [3]: 13 µM·h
- EC50 [10]: > 30 µM
- EC50 [11]: > 30 µM
Compound: Cn1c(=O)n(CC(C)(C)C)c2ccc(N3C[C@@H]4CC[C@H]3CN4C(=O)c3csnn3)nc21

- %max [1]: 74%
- EC50 [1]: 0.115 µM
- half-life [5]: 0.5 h
- F (Rattus norvegicus [19]): 73%
- solubility [2]: 183 µM (≈ 79.5 µg/mL)
- AUC (Rattus norvegicus [20]): 18 µM·h
- CL free (Rattus norvegicus [7]): 2.9 mL/min/kg
Compound: Cn1c(=O)n(CC(C)(C)C)c2ccc(N3CC4CCC3CN4C(=O)c3cccnc3)nc21 (racemic)

- Activity [21]: inactive
- fraction unbound [22]: 0.02
- EC50 [8]: > 30 µM
- EC50 [9]: > 30 µM
- %max [1]: 78%
- half-life [5]: 10 h
- half-life [13]: 16 h
- inhibition at 10 µM (CYP3A4 [24]): 6%
- fraction unbound [25]: 0.02
- CL free (Canis familiaris): 4.7 mL/min/kg
- Activity [26]: inactive
- Activity (Homo sapiens): inactive
- EC50 [10]: > 30 µM
- concentration (Cerebrospinal fluid): 61 nM
- EC50 [11]: > 30 µM
- CL free (Rattus norvegicus [7]): 17 mL/min/kg
Compound: Cn1c(=O)n(CC(C)(C)C)c2ccc(C3=C[C@@H]4CC[C@H]3CN4C(=O)c3ccon3)nc21
- Activity (Salmonella typhimurium [23]): Non-toxic
- Activity (Rattus norvegicus [27]): Active
- Activity (Salmonella typhimurium [28]): Non-toxic

- %max [1]: 79%
- EC50 [1]: 0.531 µM
- inhibition at 10 µM (CYP3A4 [24]): 7%
Compound: Cn1c(=O)n(CC(C)(C)C)c2ccc(C3CCN(C(=O)c4ccon4)CC3)nc21

- concentration (Plasma): 3200 nM
- CLint scaled at 10 µM [29]: < 55 mL/min/kg
- fraction unbound [22]: 0.08
- EC50 [8]: > 30 µM
- EC50 [9]: > 30 µM
- EC50 [30]: 0.075 µM
- clearance [4]: 28 mL/min/kg
- %max [12]: 35%
- EC50 [12]: 0.668 µM
- %max [1]: 78%
- EC50 [1]: 0.029 µM
- half-life [5]: 2.3 h
- half-life [13]: 12 h
- inhibition at 10 µM (CYP3A4 [24]): 73%
- kinact (CYP3A4 [31]): 0.00107 s⁻¹
- Ki (Cytochrome P450 3A4): 0.54 µM
- TDI (Cytochrome P450 3A4; human, microsomes): Active
- Papp (P-gp [14]): 31 ×10⁻⁶ cm/s
- bioavailability [6]: 72%
- Activity [15]: Not Active
- fraction unbound [25]: 0.06
- clearance [16]: 7 mL/min/kg
- CL free (Canis familiaris): 0.9 mL/min/kg
- solubility [2]: 125 µM (≈ 53.1 µg/mL)
- fold change (FC) [17]: 12
- efflux ratio (P-gp [18]): 1.5
- bioavailability [33]: 24%
- AUC [3]: 14 µM·h
- EC50 [10]: > 30 µM
- AUC [34]: 1.3 µM·h
- EC50 [11]: > 30 µM
- CL free (Rattus norvegicus [7]): 4.7 mL/min/kg
Compound: Cn1c(=O)n(CC(C)(C)C)c2ccc(N3C[C@@H]4CC[C@H]3CN4C(=O)c3ccon3)nc21
- Activity (Rattus norvegicus [32]): Active
- Activity (Rattus norvegicus [27]): Active
